# Assays:
# [1] = tested on: MCD4 cells; assay: Surface protein biotinylation of apical membrane AQP2 in MCD4 cells (densitometric analysis, FIG. 1); type: cell-based; conditions: control set to 100%
# From the text: (§1) In MCD4 cells in the absence of lovastatin in the culture medium (-Lovastatin) and in control (ctr) conditions, the AQP2 is stored in intracellular vesicles. […] The FK mimes the effect of the vasopressin in in vitro experiments. The same phenomenon occurs in the tubule in vivo following release into the circulation of vasopressin. […] The lovastatin therefore mimes the effect of the FK or the stimulation with vasopressin. […] It is possible to quantize the effect of the treatment with lovastatin in terms of accumulation of AQP2 on the apical membrane by means of surface protein biotinylation experiments.
# In the absence of lovastatin, only a modest amount of AQP2 is expressed on the apical membrane of the MCD4 cells, and therefore biotinylated, in control cells. The treatment with FK determines an increase of approximately 3 times in the amount of AQP2 expressed on the apical membrane.
# [2] = tested on: MCD4 cells; assay: AQP2 localisation on the apical membrane of MCD4 renal cells in culture; type: cell-based
# Experimental: The MCD4 cells, which are in culture and derive from main cells of the renal collecting duct, were treated experimentally with lovastatin. In the cell model, as in the renal tubule in vivo, the presence of AQP2 on the membrane depends on the presence of vasopressin.
# as §1
# In vitro tests performed in MCD4 renal cells indicate that the minimum treatment time with statins able to produce an evident shift of the AQP2 in the cells is 6 hours.
compound,measurement,setting,value
C=C[C@@]1(C)CC(=O)[C@]2(O)[C@@]3(C)[C@@H](O)CCC(C)(C)[C@@H]3[C@H](O)[C@H](OC(C)=O)[C@@]2(C)O1 [forskolin],increase in the amount of AQP2 expressed on the apical membrane (biotinylated),[1]; treatment with FK,approximately 3 times
CC[C@H](C)C(=O)O[C@H]1C[C@@H](C)C=C2C=C[C@H](C)[C@H](CC[C@@H]3C[C@@H](O)CC(=O)O3)[C@H]21 [lovastatin],increase of AQP2 present on the apical membrane (biotinylated),[1]; 72 h with lovastatin alone,comparable to the one obtained by the FK
same,increase in the AQP2 on the apical membrane,"[2]; MCD4 cells, lovastatin in the medium plus treatment with FK",even more evident
same,AQP2 accumulation on the apical membrane,"[2]; MCD4 control (ctr) cells, 5 μM lovastatin in the culture medium for 72 h",accumulate a considerable amount of AQP2 on the apical membrane
CC(C)c1nc(N(C)S(C)(=O)=O)nc(-c2ccc(F)cc2)c1/C=C/[C@@H](O)C[C@@H](O)CC(=O)O [rosuvastatin],effect produced by the lovastatin (AQP2 accumulation on the apical membrane) induced by other statins,"[2]; MCD4 cells, hydrosoluble formulation",induced also

# Reference: patent publication US8318771B2, “Method of treatment of nephrogenic diabetes insipidus” (Universita' Degli Studi di Bari, priority 2010, dated 2012)
